According to patent publication EP0306455A1, “Cyclodextrin complexes of bis-biguanido hexane compounds” (WARNER-LAMBERT COMPANY, priority 1987, dated 1989):
Structures can show the parent of a compound that is named as a salt. Where two headings read alike, the source gives them in different places.

How the values were obtained:
[1] = system: S. anaguis; assay: Anti-microbial activity (MIC and MLC); type: cell-based; conditions: complex compared with uncomplexed chlorhexidine digluconate
Excerpt: (§1) A comparison of the anti-microbial activity of chlorhexidine digluconate and beta-cyclodextrin complexed chlorhexidine digluconates were compared against four microorganisms, C.albicans, S. anaguis, S.mutans and A.viscosus.

[2] = system: C.albicans; assay: Anti-microbial activity (MIC and MLC); type: cell-based; conditions: complex compared with uncomplexed chlorhexidine digluconate
Excerpt: as §1

[3] = system: A.viscosus; assay: Anti-microbial activity (MIC and MLC); type: cell-based; conditions: complex compared with uncomplexed chlorhexidine digluconate
Excerpt: as §1

[4] = system: S.mutans; assay: Anti-microbial activity (MIC and MLC); type: cell-based; conditions: complex compared with uncomplexed chlorhexidine digluconate
Excerpt: as §1

[5] = Method: Free chlorhexidine has a water solubility of about 8 mg. per 100 ml. of water at room temperature.
[6] = background statement, temperature not given; dihydrochloride; cited from earlier work

## N=C(NCCCCCCNC(=N)NC(=N)Nc1ccc(Cl)cc1)NC(=N)Nc1ccc(Cl)cc1 [chlorhexidine digluconate]
[1]
  minimum inhibitory concentration (MIC): similar
  minimum lethal concentration (MLC): similar
[2]
  minimum inhibitory concentration (MIC): similar
  minimum lethal concentration (MLC): similar
[3]
  minimum inhibitory concentration (MIC): similar
  minimum lethal concentration (MLC): similar
[4]
  minimum inhibitory concentration (MIC): similar
  minimum lethal concentration (MLC): similar

## [H]/N=C(\N/C(=N/[H])NCCCCCCNC(=N)NC(=N)Nc1ccc(Cl)cc1)Nc1ccc(Cl)cc1 [chlorhexidine dihydrochloride]
[5]; water
  water solubility: 60 mg. per 100 ml. of water
[6]
  water solubility: ~60 mg per 100 ml of water

## [H]/N=C(\N/C(=N/[H])NCCCCCCNC(=N)NC(=N)Nc1ccc(Cl)cc1)Nc1ccc(Cl)cc1 [chlorhexidine, 1,6-di(p-chlorophenylbiguanides) hexane]
[5]
  water solubility: about 8 mg. per 100 ml. of water
[5]; water
  water solubility: 8 mg. per 100 ml. of water
